Experimental data taken from patent publication US20130225534A1, “METHODS FOR TREATING AN INORGANIC SLURRY” (Rhodia Operations, priority 2003, published 2013).

Tested on: bacterial contamination of calcium carbonate-based slurry
Conditions: THPS solution added to calcium carbonate-based slurry; in 2 hours

## tetrakis(hydroxymethyl)phosphonium sulphate [THPS]
  reduction in bacterial count: 10^4
